Data on 13 compounds can be found in ChEMBL document CHEMBL1127772, “Pyrazolo[1,5-a]pyridines and pyrazolo[1,5-b]pyridazines as 5ht3-antagonists” (Bioorg Med Chem Lett, 1994).

Experiment [1] concerns the target T1, Serotonin 3 (5-HT3) receptor (Rattus norvegicus, UniProt P35563+Q9JJ16).
T1 sequence (P35563 whole entry): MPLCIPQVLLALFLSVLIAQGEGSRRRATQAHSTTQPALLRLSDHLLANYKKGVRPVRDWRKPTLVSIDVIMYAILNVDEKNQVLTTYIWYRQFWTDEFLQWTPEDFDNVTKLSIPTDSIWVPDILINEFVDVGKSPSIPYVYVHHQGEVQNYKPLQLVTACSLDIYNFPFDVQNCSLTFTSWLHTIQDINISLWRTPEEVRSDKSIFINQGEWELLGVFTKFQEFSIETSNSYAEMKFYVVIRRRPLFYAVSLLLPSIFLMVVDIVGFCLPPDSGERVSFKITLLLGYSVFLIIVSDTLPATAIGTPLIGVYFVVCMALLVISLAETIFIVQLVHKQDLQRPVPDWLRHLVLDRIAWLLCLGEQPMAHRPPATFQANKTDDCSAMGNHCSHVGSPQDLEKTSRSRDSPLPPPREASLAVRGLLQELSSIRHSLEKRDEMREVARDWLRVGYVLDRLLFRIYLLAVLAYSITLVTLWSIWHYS
T1 sequence (Q9JJ16 whole entry): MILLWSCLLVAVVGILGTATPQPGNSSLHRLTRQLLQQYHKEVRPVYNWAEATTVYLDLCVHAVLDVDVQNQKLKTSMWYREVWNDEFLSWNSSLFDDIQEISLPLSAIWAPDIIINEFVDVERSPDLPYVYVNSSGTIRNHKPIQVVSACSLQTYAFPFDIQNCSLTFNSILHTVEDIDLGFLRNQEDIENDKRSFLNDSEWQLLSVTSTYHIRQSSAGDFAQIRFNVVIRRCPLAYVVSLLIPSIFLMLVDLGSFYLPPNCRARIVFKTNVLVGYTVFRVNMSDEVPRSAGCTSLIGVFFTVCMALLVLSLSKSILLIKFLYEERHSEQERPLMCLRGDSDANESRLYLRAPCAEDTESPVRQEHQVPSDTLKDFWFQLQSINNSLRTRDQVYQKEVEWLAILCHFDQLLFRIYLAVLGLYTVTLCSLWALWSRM
Nature of the experiment: Inhibition of [3H]GR-65630 binding to rat cortical membrane serotonin 3 receptor.

For experiment [2], the target named is T2, Serotonin 3 (5-HT3) receptor (Rattus norvegicus) (UniProt P35563+Q9JJ16). Nature of the experiment: Antagonism of 5-HT-induced Von Bezold-Jarisch reflex in rat after intravenous administration of 30 ug/kg of HT (5-hydroxytryptamine 3 receptor antagonism). In kind it is functional, organism-based.
Experiment [3] has as its target T1, Serotonin 3 (5-HT3) receptor. Nature of the experiment: Inhibition of 5-HT (1 ug/mL) induced depolarization in rat vagus nerve (5-hydroxytryptamine 3 receptor antagonism). In kind it is functional, tissue-based.
Experiment [4] deals with T2, Serotonin 3 (5-HT3) receptor (Rattus norvegicus). The experiment in a line: Ability to antagonise the 5-HT- induced Von Bezold-Jarisch reflex in the rat after intravenous administration of 30 ug/kg of HT (5-hydroxytryptamine 3 receptor). In kind it is functional, organism-based.
Experiment [5] has as its target T1, Serotonin 3 (5-HT3) receptor. The experiment in a line: Tested for inhibition of binding of [3H]GR-65630 to rat cortical membranes, expressed as IC50. The format is cell membranes, Membrane.
The target of experiment [6] is T3, 5-hydroxytryptamine receptor 1A (Homo sapiens, UniProt P08908).
T3 sequence (P08908 whole entry): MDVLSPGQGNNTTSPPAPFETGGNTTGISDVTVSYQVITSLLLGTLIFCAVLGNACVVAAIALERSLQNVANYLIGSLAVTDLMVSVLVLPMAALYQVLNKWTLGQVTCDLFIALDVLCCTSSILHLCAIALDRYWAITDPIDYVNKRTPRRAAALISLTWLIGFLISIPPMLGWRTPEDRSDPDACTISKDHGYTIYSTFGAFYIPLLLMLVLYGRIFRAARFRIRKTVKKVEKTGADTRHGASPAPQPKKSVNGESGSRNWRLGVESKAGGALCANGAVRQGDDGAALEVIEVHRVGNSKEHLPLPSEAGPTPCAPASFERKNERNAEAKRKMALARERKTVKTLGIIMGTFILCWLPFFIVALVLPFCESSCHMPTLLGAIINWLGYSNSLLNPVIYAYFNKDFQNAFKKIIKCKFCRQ
Nature of the experiment: Tested for binding affinity for 5-hydroxytryptamine 1A receptor.

In experiment [7] the target is Serotonin 2 (5-HT2) receptor (Homo sapiens, UniProt P41595+P28223+P28335). Nature of the experiment: Tested for binding affinity for 5-hydroxytryptamine 2 receptor. In kind it is protein assay.
The target in experiment [8] is T4, D(2) dopamine receptor (Homo sapiens, UniProt P14416). Nature of the experiment: Tested for binding affinity for Dopamine D2 receptors.
The target in experiment [9] is T4, D(2) dopamine receptor. Nature of the experiment: Tested for binding affinity for Dopamine D2 receptor.

pIC50: −log10 of the molar value. Bounds are passed on as bounds.

T4 sequence (P14416 whole entry): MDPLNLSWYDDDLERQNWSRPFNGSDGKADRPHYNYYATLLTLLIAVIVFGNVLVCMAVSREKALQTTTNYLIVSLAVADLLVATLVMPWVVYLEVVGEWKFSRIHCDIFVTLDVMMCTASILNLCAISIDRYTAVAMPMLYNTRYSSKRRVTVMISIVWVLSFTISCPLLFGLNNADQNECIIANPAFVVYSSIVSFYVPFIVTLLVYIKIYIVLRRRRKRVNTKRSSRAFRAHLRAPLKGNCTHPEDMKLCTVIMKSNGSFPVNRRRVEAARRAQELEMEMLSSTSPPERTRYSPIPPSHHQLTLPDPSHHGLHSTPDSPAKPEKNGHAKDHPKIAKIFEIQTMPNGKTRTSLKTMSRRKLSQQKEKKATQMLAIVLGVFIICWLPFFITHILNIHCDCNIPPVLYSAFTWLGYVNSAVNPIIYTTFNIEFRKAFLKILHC

Consider `CN1C2CCCC1CC(NC(=O)c1cnn3ccccc13)C2` (stereo not given), for which the pIC50 in experiment [1] is 6.77; in [3], 6.52. Also, the ED50 in [2] was determined as 5 µg/kg.
Regarding `O=C(N[C@@H]1CN2CC[C@@H]1C2)c1cnn2ccccc12`, the pIC50 in [1] was 7.14; in experiment [3], 6.38. It took a dose of 8 µg/kg to reach the 50% effect level in experiment [2] (ED50).
Consider `Cc1nn2ncccc2c1C(=O)NC1CC2CCCC(C1)N2C` (stereo not given), for which the 50% effective dose (ED50) in experiment [4] was greater than 50 µg/kg. Also, the pIC50 in experiment [1] is less than 6.52.
`O=C(NC1CN2CCC1CC2)c1cnn2ccccc12` (stereo not given): the negative logarithm of the IC50 (pIC50) was 7.12 in experiment [1] and 7.08 in [3]. The ED50 in [2] was 1 µg/kg.
`CN1C2CCC1CC(NC(=O)c1cnn3ncccc13)C2` (stereo not given) showed a pIC50 in experiment [1] of 6.37. This compound also had an ED50 in experiment [2] of 30 µg/kg.
`Cc1nn2ccccc2c1C(=O)NC1CC2CCCC(C1)N2C` (stereo not given): the negative-log IC50 (pIC50) in [1] was 7.19; in experiment [3] it was 7.00. In [2], this compound registered a 50% effective dose (ED50) of 6 µg/kg.
As to `Cc1nn2ccccc2c1C(=O)NC1CC2CCC(C1)N2C` (stereo not given), in experiment [4], it took a dose of 1.2 µg/kg to reach the 50% effect level (ED50). Further, the negative logarithm of the IC50 (pIC50) in [1] is 7.59; in experiment [3], 7.38.
Take `CN1[C@@H]2CC[C@H]1C[C@@H](OC(=O)c1c[nH]c3ccccc13)C2` [TROPISETRON]: the pIC50 is 8.51 in [1] and 8.85 in [3]. Besides, the ED50 in [2] was determined as 0.5 µg/kg.
In experiment [4], `Cc1nn2ncccc2c1C(=O)NC1CC2CCC(C1)N2C` (stereo not given) returned an ED50 of 50 µg/kg. Also, in [1], the pIC50 is 6.91.
With `CN1C2CCCC1CC(NC(=O)c1cnn3ncccc13)C2` (stereo not given), the pIC50 in experiment [5] was 6.09. The compound also registered an ED50 in experiment [4] greater than 100 µg/kg.
Consider `CN1C2CCC1CC(OC(=O)c1cnn3ccccc13)C2` (stereo not given), for which the pIC50 is less than 5.00 in experiment [6], 7.55 in [1] and less than 5.00 on D(2) dopamine receptor [8]. Also, the 50% effect level in [2] (ED50) was put at a dose of 2 µg/kg. Further, in [7], the half-maximal inhibitory concentration (IC50) is greater than 10000 nM.
On to `CN1C2CCC1CC(NC(=O)c1cnn3ccccc13)C2` (stereo not given), for which the negative logarithm of the IC50 (pIC50) is less than 5.00 at D(2) dopamine receptor [9], less than 5.00 in [6], 7.47 in [1] and 6.98 in [3]. Also, in experiment [2], it took a dose of 0.74 µg/kg to reach the 50% effect level (ED50). In addition, the IC50 in experiment [7] was greater than 10000 nM.
In the case of `O=C(N[C@H]1CN2CCC1C2)c1cnn2ccccc12` (stereo not given in full), the figures for the pIC50 in experiment [1] and in [3] were 7.28 and 6.91, respectively. In experiment [2], this compound showed a median effective dose (ED50) of 2 µg/kg.

The pIC50 is the negative decadic logarithm of the IC50, by convention in mol/L. High values mean a low IC50, low ones a high IC50. One may read the ED50 as the dose that gives a 50% effect, or the effect in half of the subjects. Lower therefore signals an effect at a small dose. By IC50 is commonly meant the concentration needed to halve the response being measured.
